Reference: patent publication US20210292330A1, “PYRROLIDINE-FUSED HETEROCYCLES” (Erasca, Inc., priority 2020, published 2021)

Target: T1, KRAS 4B G12C protein (Homo sapiens, UniProt P01116, G12C)
T1 construct: This protein contained 188 amino acids in total, including an N-terminal 6-Histidine tag; made in house; host or cells: E. coli BL21
Assay: In vitro covalent adduct formation (CAF) assay by LC-MS
Format: binding
Conditions: compound 10 μM, protein 5 μM, 22° C., percentage of protein bound by the compound
Summary of the method: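 Recombinant His-TEV-tagged KRAS 4B G12C (residues 1-169, E. coli) at 5 μM in Tris-buffered saline pH 7.4 was incubated with 10 μM compound (4% DMSO) at 22° C. for one hour, sampling over time. Intact-mass LC-MS free:adduct ratios gave % protein bound; duplicates.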

Row | CAF (10 minutes/60 minutes) at 10 micromolar: 10 minutes | CAF (10 minutes/60 minutes) at 10 micromolar: 60 minutes | Compound
1 | 16% | 50% | C=CC(=O)N1CCN(c2nc(Oc3cnc(N)nc3C3CC3)nc3c2CN(C2CCc4ccccc42)C3)C[C@@H]1CC#N (stereo partly shown) [1-207]
2 | 6% | 91% | C=CC(=O)N1CCN(c2nc(OC[C@@H]3CCCN3C)nc3c2CN(C2CCCc4ccccc42)C3)C[C@@H]1CC#N (stereo partly shown) [1-52]
3 | 52% | 82% | C=C(F)C(=O)N1CCN(c2nc(OC[C@@H]3CCCN3C)nc3c2CN(C2CCc4cccc(Cl)c42)C3)C[C@@H]1CC#N (stereo partly shown) [1-154]
4 | 48% | 70% | C=CC(=O)N1CCN(c2nc(OC[C@@H]3CCCN3C)nc3c2CN(Cc2cccc4c2CCO4)C3)C[C@@H]1CC#N [1-143]
5 | 96% | 98% | C=CC(=O)N1CCN(c2nc(OC[C@@H]3CCCN3C)nc3c2CN(Cc2c(F)cccc2OC(F)F)C3)C[C@@H]1CC#N [1-58]
6 | 51% | 72% | C=CC(=O)N1CCN(c2nc(OC[C@@H]3CCCN3C)nc3c2CN(Cc2cc(OC)ccc2F)C3)C[C@@H]1CC#N [1-39]
7 | 21% | 31% | C=CC(=O)N1CCN(c2nc(OC[C@@H]3CCCN3C)nc3c2CN(C2CCc4ccccc42)C3)[C@@H](C#N)C1 (stereo partly shown) [1-150]
8 | 57% | 61% | C=CC(=O)N1CCN(c2nc(OC[C@@H]3CCCN3C)nc3c2CN(C(C)c2ccccc2C(C)C)C3)C[C@@H]1CC#N (stereo partly shown) [1-189]
9 | 3% | 22% | C=CC(=O)N1CCN(c2nc(OC[C@@H]3CCCN3C)nc3c2CN(Cc2cc(Cl)ccc2Cl)C3)[C@@H](C)C1 [1-41]
10 | 70% | 77% | C=CC(=O)N1CCN(c2nc(OC[C@@H]3CCCN3C)nc3c2CN(C(C)c2cc(O)ccc2C)C3)[C@@H](C)C1 (stereo partly shown) [1-54]
11 | 48% | 68% | C=C(F)C(=O)N1CCN(c2nc(OC[C@@H]3CCCN3C)nc3c2CN(C2CCc4ccccc42)C3)C[C@@H]1CC#N (stereo partly shown) [1-109]
12 | 94% | 98% | C=CC(=O)N1CCN(c2nc(OC[C@@H]3CCCN3C)nc3c2CN(Cc2cc(Cl)ccc2Cl)C3)C[C@@H]1CC#N [1-28]
13 | 0%/ 0% | 0%/ 0% | C=CC(=O)N1[C@H](C)CN(c2nc(OC[C@@H]3CCCN3C)nc3c2CN(Cc2c(Cl)ccc(O)c2C)C3)C[C@H]1C [1-341]
14 | 0%/ 0% | 0%/ 0% | C#Cc1ccccc1CN1Cc2nc(OC[C@@H]3CCCN3C)nc(N3CCN(C(=O)C=C)[C@@H](CC#N)C3)c2C1 [1-235]
15 | 52% | 73% | C=CC(=O)N1CCN(c2nc(OC[C@@H]3CCCN3C)nc3c2CN(Cc2ccccc2CC(C)C)C3)C[C@@H]1CC#N [1-191]
16 | 0%/ 0% | 0%/ 0% | C=CC(=O)N1CCN(c2nc(OC[C@@H]3CCCN3C)nc3c2CN(Cc2c(Cl)cccc2OC(F)F)C3)C[C@H]1C [1-105]
17 | 0% | 4% | C#CC1CN(c2nc(OC[C@@H]3CCCN3C)nc3c2CN(C2CCc4ccccc42)C3)CCN1C(=O)C=C (stereo partly shown) [1-121]
18 | 0% | 3% | C=C(F)C(=O)N1CCN(c2nc(OC[C@@H]3CCCN3C)nc3c2CN(Cc2c(C)cc(C)c(O)c2C)C3)C[C@@H]1CC#N [1-325]
19 | 7% | 36% | C=CC(=O)N1CCN(c2nc(OCC3CC3)nc3c2CN(C2CCc4ccccc42)C3)C[C@@H]1CC#N (stereo partly shown) [1-142]
20 | 70% | 92% | C=CC(=O)N1CCN(c2nc(OC[C@@H]3CCCN3C)nc3c2CN(Cc2cc(Cl)ccc2C)C3)C[C@@H]1CC#N [1-67]

Row | CAF (10 minutes/60 minutes) at 10 micromolar: 10 minutes | CAF (10 minutes/60 minutes) at 10 micromolar: 60 minutes | Compound
21 | 20% | 63% | C=CC(=O)N1C[C@H](C)N(c2nc(OC[C@@H]3CCCN3C)nc3c2CN(Cc2c(C)ccc(O)c2C)C3)C[C@H]1C [1-21]
22 | 0% | 6% | C=CC(=O)N1CCN(c2nc(OC[C@@H]3CCCN3C)nc3c2CN(Cc2cc(F)ccc2C)C3)[C@@H](C)C1 [1-20]
23 | 32% | 76% | C=CC(=O)N1CCN(c2nc(OC[C@@H]3CCCN3C)nc3c2CN(Cc2cc(O)c(Cl)cc2C)C3)C[C@@H]1CC#N [1-331]
24 | 0% | 7% | C=C(F)C(=O)N1CCN(c2nc(OC[C@@H]3CCCN3C)nc3c2CN(Cc2cc(NC)ncc2Cl)C3)C[C@@H]1CC#N [1-340]
25 | 0%/ 0% | 0%/ 0% | C=CC(=O)N1CCN(c2nc(OC[C@@H]3CCCN3C)nc3c2CN(Cc2cc(F)cc(F)c2)C3)[C@@H](C)C1 [1-13]
26 | 92% | 95% | C=CC(=O)N1CCN(c2nc(OC[C@@H]3CCCN3C)nc3c2CN(Cc2nc(N)cc(C)c2C(F)(F)F)C3)C[C@@H]1CC#N [1-335]
27 | 0% | 7% | C=CC(=O)N1CCN(c2nc(OC[C@@H]3CCCN3C)nc3c2CN(Cc2cc(Cl)ccc2C)C3)[C@@H](C)C1 [1-30]
28 | 0%/ 0% | 0%/ 0% | C=CC(=O)N1CCN(c2nc(OC[C@@H]3CCCN3C)nc3c2CN(C2CCc4ccccc42)C3)C[C@@H]1C(O)C(F)(F)F (stereo partly shown) [1-118]
29 | 53% | 65% | C=CC(=O)N1CCN(c2nc(OC[C@@H]3CCCN3CC(C)C)nc3c2CN(C2CCc4ccccc42)C3)C[C@@H]1CC#N (stereo partly shown) [1-192]
30 | 94% | 95% | C=CC(=O)N1CCN(c2nc(OC[C@@H]3CCCN3C)nc3c2CN(Cc2c(Cl)ccc4nc[nH]c24)C3)C[C@@H]1CC#N [1-229]
31 | 0%/ 0% | 0%/ 0% | C=CC(=O)N1CCN(c2nc(OC[C@@H]3CCCN3C)nc3c2C(C(F)(F)F)N(Cc2ccccc2)C3)C[C@@H]1CC#N (stereo partly drawn) [1-181, 2-((2S)-1-acryloyl-4-(6-benzyl-2-(((S)-1-methylpyrrolidin-2-yl)methoxy)-5-(trifluoromethyl)-6,7-dihydro-5H-pyrrolo[3,4-d]pyrimidin-4-yl)piperazin-2-yl)acetonitrile]
32 | 0%/ 0% | 0%/ 0% | C=C(F)C(=O)N1CCN(c2nc(OC[C@@H]3CCCN3C)nc3c2CN(Cc2c[nH]nc2C)C3)C[C@@H]1CC#N [1-343]
33 | 0%/ 0% | 0%/ 0% | C=CC(=O)N1CCN(c2nc(OC[C@@H]3CCCN3C)nc3c2CN(C2CCc4ccccc42)C3)C[C@@H]1Cc1ncc[nH]1 (stereo partly drawn) [1-224, 1-((2S)-2-((1H-imidazol-2-yl)methyl)-4-(6-(2,3-dihydro-1H-inden-1-yl)-2-(((S)-1-methylpyrrolidin-2-yl)methoxy)-6,7-dihydro-5H-pyrrolo[3,4-d]pyrimidin-4-yl)piperazin-1-yl)prop-2-en-1-one]
34 | 77% | 93% | C=CC(=O)N1CCN(c2nc(OC[C@@H]3CCCN3C)nc3c2CN(Cc2ccccc2CC(F)(F)F)C3)C[C@@H]1CC#N [1-225]
35 | 87% | 98% | C=CC(=O)N1CCN(c2nc(OC[C@@H]3CCCN3C)nc3c2CN(Cc2cc(F)ccc2C)C3)C[C@@H]1CC#N [1-11]
36 | 6% | 24% | C=CC(=O)N1CCN(c2nc(Oc3cccnc3C3CC3)nc3c2CN(C2CCc4ccccc42)C3)C[C@@H]1CC#N (stereo partly shown) [1-173]
37 | 0%/ 0% | 0%/ 0% | C=CC(=O)N1CCN(c2nnc(OC)c3c2CN(Cc2cc(O)ccc2C)C3)[C@@H](C)C1 [1-37]
38 | 7% | 30% | C=CC(=O)N1CCN(c2nc(OC[C@@H]3CCCN3C)nc3c2CN(C2CCc4ccccc42)C3)[C@H](C(N)=O)C1 (stereo partly shown) [1-182]
39 | 69% | 93% | C=CC(=O)N1CCN(c2nc(OC[C@@H]3CCCN3C)nc3c2CN(Cc2cc(O)ccc2C)C3)[C@@H](C)C1 [1-1, 1-[(3S)-4-{6-[(5-hydroxy-2-methylphenyl)methyl]-2-{[(2S)-1-methylpyrrolidin-2-yl]methoxy}-5H,7H-pyrrolo[3,4-d]pyrimidin-4-yl}-3-methylpiperazin-1-yl]prop-2-en-1-one]

Row | Compound | CAF (10 minutes/60 minutes) at 10 micromolar: 10 minutes | CAF (10 minutes/60 minutes) at 10 micromolar: 60 minutes
40 | C=CC(=O)N1C2COCC1CN(c1nc(OC[C@@H]3CCCN3C)nc3c1CN(Cc1cc(O)ccc1Cl)C3)C2 [1-124] | 21% | 67%
41 | C=CC(=O)N1C2CCCC1CN(c1nc(OC[C@@H]3CCCN3C)nc3c1CN(Cc1cc(O)ccc1Cl)C3)C2 [1-149] | 0% | 8%
